In article PMC9059851 (RSC Advances, 2019):

Experiment: Zeta potential measurement
Format: physicochemical
Settings: NanoZS, solutions in pH 7.4 phosphate buffer

C[C@]12CC[C@H](O)C[C@H]1CC[C@@H]1[C@@H]2CC[C@]2(C)[C@@H](c3ccc(=O)oc3)CC[C@]12O [bufalin]
zeta potential: −0.55 mV
